Experimental data taken from patent US12516289B2, “Methods of producing T memory stem cell populations” (The United States of America, as represented by the …, priority 2012, dated 2026).

Test system: CD45RO−CD62L+ naïve CD8+ T cells
Assay: Activation of naïve CD8+ T cells in the presence of the GSK-3β inhibitor, phenotypic analysis
Format: cell-based, human
Protocol: Candidate human TSCM cells were generated by activating CD45RO^−CD62L^+ naïve CD8^+ T cells in the presence of the GSK-3β inhibitor TWS119. […] To determine whether the CD45RO^−CD62L^+ T cells generated in the presence of TWS119 were truly naïve cells or had acquired memory traits, phenotypic analysis was performed using established markers of T cell activation and differentiation (Appay et al., Cytometry A 73: 975-983 (2008)).

## Nc1cccc(-c2cc3c(Oc4cccc(O)c4)ncnc3[nH]2)c1 [TWS119, 3-[[6-(3-aminophenyl)-7H-pyrrolo[2,3-d]pyrimidin-4-yl]oxy]phenol]
naïve CD8+ T cells activated in presence of TWS119, after 2 weeks
  phenotype of T cells after culture (CD45RO/CD62L): majority of T cells cultured with TWS119 retained a CD45RO^−CD62L^+ naïve-like phenotype
Phenotypic analysis, compared with TN and memory T cells
  expression of CD95 and IL-2Rβ by TWS119-generated naïve-like T cells: expressed levels of CD95 and IL-2Rβ similar to those observed in memory T cells
